Measured values from patent publication US9221746B2, “Homo- and hetero-polyamino-acid derivatives of fullerene C60, method for producing same, and pharmaceutical compositions based on said derivatives” (priority 2011, dated 2015).

Columns and labels:
[1] = test system: A/Aichi/2/69 (H3N2) influenza virus; assay: Induced influenza pneumonia in mice
[2] = test system: type 1 human immunodeficiency virus; assay: Antiviral activity on HIV-1 infected human cell model; type: cell-based; settings: for Cell survival rate, % / Number of cells × 10^3/mL / CPE/syncytia (+): HIV-1 infected cells; for CPE/syncytia (+): four-plus system
[3] = test system: human lymphoblastoid cells; assay: Cytotoxicity in human lymphoblastoid cells model; type: cell-based
[4] = LD90, intramuscularly 50 mg/kg/day
[5] = LD90, intramuscularly 100 mg/kg/day
[6] = LD90, intramuscularly 200 mg/kg/day
[7] = LD90, intraperitoneally 50 mg/kg/day
[8] = LD90, intraperitoneally 100 mg/kg/day

Fullerene Poly(Aminocaproic Acid) of Formula C60(H3){NH(CH2)5COO—}3{NH3^+(CH2)5COOH}3 [Agent No. 1]
Percent body weight change in days post infection ([1]; LD70, orally 100 mg/kg/day, day 3): +25%
Percent body weight change in days post infection ([1]; LD70, orally 100 mg/kg/day, day 4): +22%
Percent body weight change in days post infection ([1]; LD70, orally 100 mg/kg/day, day 5): +16%
Percent body weight change in days post infection ([1]; LD70, orally 100 mg/kg/day, day 7): +17%
Percent body weight change in days post infection ([1]; LD70, orally 100 mg/kg/day, day 9): +24%
Percent body weight change in days post infection ([1]; LD70, orally 100 mg/kg/day, day 11): +43%
Percent body weight change in days post infection ([1]; LD70, orally 100 mg/kg/day, day 13): +51%
Percent death protection (%) ([1]; LD70, orally 200 mg/kg/day): 70%
average lifetime ([1]; LD70, orally 200 mg/kg/day): >16 days
Percent body weight change in days post infection ([1]; LD70, orally 200 mg/kg/day, day 1): +26%
Percent body weight change in days post infection ([1]; LD70, orally 200 mg/kg/day, day 2): +31%
Percent body weight change in days post infection ([1]; LD70, orally 200 mg/kg/day, day 3): +36%
Percent body weight change in days post infection ([1]; LD70, orally 200 mg/kg/day, day 4): +36%
Percent body weight change in days post infection ([1]; LD70, orally 200 mg/kg/day, day 5): +36%
Percent body weight change in days post infection ([1]; LD70, orally 200 mg/kg/day, day 7): +38%
Percent body weight change in days post infection ([1]; LD70, orally 200 mg/kg/day, day 9): +47%
Percent body weight change in days post infection ([1]; LD70, orally 200 mg/kg/day, day 11): +51%
Percent body weight change in days post infection ([1]; LD70, orally 200 mg/kg/day, day 13): +57%
Average lifetime (days) ([1]; LD70, orally 300 mg/kg/day): 12.8 (1-8 d., 2-9 d.) days
Percent death protection (%) ([1]; LD70, orally 300 mg/kg/day): 40%
Percent body weight change in days post infection ([1]; LD70, orally 300 mg/kg/day, day 1): +24%
Percent body weight change in days post infection ([1]; LD70, orally 300 mg/kg/day, day 2): +27%
Percent body weight change in days post infection ([1]; LD70, orally 300 mg/kg/day, day 3): +28%
Percent body weight change in days post infection ([1]; LD70, orally 300 mg/kg/day, day 4): +24%
Percent body weight change in days post infection ([1]; LD70, orally 300 mg/kg/day, day 5): +19%
Percent body weight change in days post infection ([1]; LD70, orally 300 mg/kg/day, day 7): +23%
Percent body weight change in days post infection ([1]; LD70, orally 300 mg/kg/day, day 9): +35%
Percent body weight change in days post infection ([1]; LD70, orally 300 mg/kg/day, day 11): +36%
Percent body weight change in days post infection ([1]; LD70, orally 300 mg/kg/day, day 13): +38%
Average lifetime (days) [1, 4]: 11.4 (2-7 d., 1-8 d., 2-11 d) days
Percent death protection (%) [1, 4]: 40%
Average lifetime (days) [1, 5]: 13.0 (1-8 d., 1-9 d., 1-11 d.) days
Percent death protection (%) [1, 5]: 60%
Average lifetime (days) [1, 6]: 13.1 (1-7 d., 2-11 d) days
Percent death protection (%) [1, 6]: 60%
Average lifetime (days) [1, 7]: 11.5 (2-7 d. D-9 d., 2-11 d.) days
Percent death protection (%) [1, 7]: 40%
Average lifetime (days) [1, 8]: 10 D3-7 d., 2-8 d., 1-9 d.) days
Percent death protection (%) [1, 8]: 30%
Average lifetime (days) ([1]; LD90, orally 100 mg/kg/day): 10.8 (2-7 d., 1-9 d., 2-10 d., 1-11 d) days
Percent death protection (%) ([1]; LD90, orally 100 mg/kg/day): 30%
Average lifetime (days) ([1]; LD90, orally 200 mg/kg/day): 13.4 (1-10 d., 2-11 d) days
Percent death protection (%) ([1]; LD90, orally 200 mg/kg/day): 60%
increase of lifetime ([1]; intramuscular, doses of 100 and 200 mg/kg/day): twofold
toxicity for infected mice ([1]; intraperitoneal, 200 mg/kg/day): toxic
efficiency of intraperitoneal treatment ([1]; intraperitoneal, only in doses of 50 and 100 mg/kg/day): efficient
Cell survival rate, % ([2]; 0.5 mcg/mL): 18%
Number of cells × 10^3/mL ([2]; 0.5 mcg/mL): 33 × 10^3/mL
CPE/syncytia (+) ([2]; 0.5 mcg/mL): 4.0 (+)
Cell survival rate, % ([2]; 1.0 mcg/mL): 26%
Number of cells × 10^3/mL ([2]; 1.0 mcg/mL): 495 × 10^3/mL
CPE/syncytia (+) ([2]; 1.0 mcg/mL): 4.0 (+)
Cell survival rate, % ([2]; 5.0 mcg/mL): 98%
Number of cells × 10^3/mL ([2]; 5.0 mcg/mL): 633 × 10^3/mL
CPE/syncytia (+) ([2]; 5.0 mcg/mL): 0 (+)
Cell survival rate, % ([2]; 10 mcg/mL): 98%
Number of cells × 10^3/mL ([2]; 10 mcg/mL): 600 × 10^3/mL
CPE/syncytia (+) ([2]; 10 mcg/mL): 0 (+)
EC50 (50% effective concentration) ([2]; type 1 human immunodeficiency virus): 0.9 µg/mL
Cell survival rate, % ([3]; 0.5 mcg/mL): 95%
Number of cells × 10^3/mL ([3]; 0.5 mcg/mL): 833 × 10^3/mL
Cell survival rate, % ([3]; 1.0 mcg/mL): 94%
Number of cells × 10^3/mL ([3]; 1.0 mcg/mL): 833 × 10^3/mL
Cell survival rate, % ([3]; 5.0 mcg/mL): 98%
Number of cells × 10^3/mL ([3]; 5.0 mcg/mL): 799 × 10^3/mL
Cell survival rate, % ([3]; 10.0 mcg/mL): 94%
Number of cells × 10^3/mL ([3]; 10.0 mcg/mL): 767 × 10^3/mL
Cell survival rate, % ([3]; 100 mcg/mL): 95%
cytotoxic effect on cells ([3]; concentrations of 0.5 to 10 mcg/mL): no cytotoxic effect
